Experimental data: PMC4392609, “Interactions of antiretroviral drugs with the SLC22A1 (OCT1) drug transporter” (Frontiers in Pharmacology, 2015)
“And” between values parts separate entries of the source, which are not always exact repeats. Identical values can stand only once. Like-named read-outs stand apart in the source and are kept apart here. Values belong to the molecule of their own block, whether it stands above or below them.

Experiments:
SLC22A1 [1] = molecular target: T1, SLC22A1 (Homo sapiens, UniProt O15245); set-up: expressed in transfected cells; method as in Jung et al., 2008; conditions: 1-methyl-4-phenylpyridinium as substrate, HEK-293 cells, 1 min incubation; efavirenz assessed only at 5 μM; ref Jung et al., 2008; cited from earlier work
T1 sequence (O15245 1-554): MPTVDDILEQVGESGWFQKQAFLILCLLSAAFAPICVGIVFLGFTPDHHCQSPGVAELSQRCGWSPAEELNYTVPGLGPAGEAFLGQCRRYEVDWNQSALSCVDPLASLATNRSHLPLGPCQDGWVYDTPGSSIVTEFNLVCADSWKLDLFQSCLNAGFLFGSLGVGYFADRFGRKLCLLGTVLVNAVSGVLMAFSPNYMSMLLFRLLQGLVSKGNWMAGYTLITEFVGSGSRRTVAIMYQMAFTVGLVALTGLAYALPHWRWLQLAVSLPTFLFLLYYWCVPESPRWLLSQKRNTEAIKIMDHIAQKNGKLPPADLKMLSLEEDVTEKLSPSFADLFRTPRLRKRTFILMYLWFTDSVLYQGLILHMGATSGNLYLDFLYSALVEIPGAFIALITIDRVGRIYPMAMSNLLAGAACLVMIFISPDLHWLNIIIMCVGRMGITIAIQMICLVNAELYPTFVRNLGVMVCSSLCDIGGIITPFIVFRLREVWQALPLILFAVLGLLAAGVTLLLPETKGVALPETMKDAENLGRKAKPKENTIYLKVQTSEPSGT

[2] = ref Villani et al., 1999; cited from earlier work
SLC22A1 [3] = molecular target: T1, SLC22A1; experiment: SLC22A1 IC50 determination (inhibition of tetraethylammonium accumulation over a concentration range); format: cell-based; set-up: expressed in transfected cells; conditions: for TEA accumulation when 100 μM inhibitor used (%compared to inhibitor-free control): tetraethylammonium 5.5 μM, 30 min
SLC22A1 [4] = molecular target: T1, SLC22A1; experiment: Tetraethylammonium accumulation in SLC22A1-overexpressing KCL22 cells co-incubated with 50 μM test drug; conditions: for Reduction in cellular accumulation (of tetraethylammonium): 50 μM drug, SLC22A1-overexpressing KCL22 cells
SLC22A1 [5] = molecular target: T1, SLC22A1; conditions: 30 min
From the text: Using intracellular radioactivity readings, the amount of drug in mock transfected cells was compared to SLC22A1-overexpressing KCL22 cells (% ± SD).

SLC22A1 [6] = molecular target: T1, SLC22A1; set-up: expressed in transfected cells; method as in Zhang et al., 2000; conditions: ref Zhang et al., 2000; cited from earlier work
[7] = SLC22A1-overexpressing KCL22 cells, 100 μM inhibitor

SMILES: COC(=O)N[C@H](C(=O)N[C@@H](Cc1ccccc1)[C@@H](O)CN(Cc1ccc(-c2ccccn2)cc1)NC(=O)[C@@H](NC(=O)OC)C(C)(C)C)C(C)(C)C [atazanavir]
SLC22A1 inhibition in vitro (SLC22A1 [1]): no SLC22A1-inhibiting capability

TEA accumulation when 100 μM inhibitor used (%compared to inhibitor-free control) (SLC22A1 [3]; [7]): 39.7% | IC50 (SLC22A1 [3]; read-out: Absolute IC50): 21.8 µM | IC50 (SLC22A1 [3]; read-out: Relative IC50): 7.4 µM | Reduction in cellular accumulation (of tetraethylammonium) (SLC22A1 [4]): 50.0% | Accumulation in SLC22A1-expressing cells compared to mock-transfected cells (% higher) (SLC22A1 [5]; human, 20 μM): 17% | Amount of substrate in mock-transfected cells compared to SLC22A1-overexpressing cells (% less) (SLC22A1 [5]; human, 20 μM): 17%
SMILES: O=C1Nc2ccc(Cl)cc2[C@@](C#CC2CC2)(C(F)(F)F)O1 [efavirenz]
Maximum plasma concentration of efavirenz [2]: 12.7 µM | SLC22A1 inhibition in vitro (SLC22A1 [1]): did not show SLC22A1 inhibition

Reduction in cellular accumulation (of tetraethylammonium) (SLC22A1 [4]): 22.5%
SMILES: Cc1cc(C#N)cc(C)c1Oc1nc(Nc2ccc(C#N)cc2)nc(N)c1Br [etravirine]

SMILES: CC(C)(C)NC(=O)[C@@H]1CN(Cc2cccnc2)CCN1C[C@@H](O)C[C@@H](Cc1ccccc1)C(=O)N[C@H]1c2ccccc2C[C@H]1O [indinavir]
Effect on tetraethylammonium accumulation in SLC22A1-overexpressing Hela cells (SLC22A1 [6]): able to reduce tetraethylammonium accumulation

SMILES: Nc1ccn([C@@H]2CS[C@H](CO)O2)c(=O)n1 [lamivudine]
SLC22A1 inhibition in vitro (SLC22A1 [1]): significant inhibition

SMILES: Cc1c(O)cccc1C(=O)N[C@@H](CSc1ccccc1)[C@H](O)CN1C[C@H]2CCCC[C@H]2C[C@H]1C(=O)NC(C)(C)C [nelfinavir]
Effect on tetraethylammonium accumulation in SLC22A1-overexpressing Hela cells (SLC22A1 [6]): able to reduce tetraethylammonium accumulation | SLC22A1 inhibition in vitro (SLC22A1 [1]): inhibited

Reduction in cellular accumulation (of tetraethylammonium) (SLC22A1 [4]): 24.5%
SMILES: Cc1ccnc2c1NC(=O)c1cccnc1N2C1CC1 [nevirapine]

Reduction in cellular tetraethylammonium accumulation (SLC22A1 [3]; 100 μM inhibitor, SLC22A1-overexpressing KCL22 cells): 84% | TEA accumulation when 100 μM inhibitor used (%compared to inhibitor-free control) (SLC22A1 [3]; [7]): 16.1% | IC50 (SLC22A1 [3]; read-out: Absolute IC50): 2.8 µM | IC50 (SLC22A1 [3]; read-out: Relative IC50): 2.3 µM
SMILES: COc1cc2nc(N3CCN(C(=O)c4ccco4)CC3)nc(N)c2cc1OC [prazosin]

SMILES: Cc1nnc(C(=O)NC(C)(C)c2nc(C(=O)NCc3ccc(F)cc3)c(O)c(=O)n2C)o1 [raltegravir]
Tetraethylammonium concentration in cells after 30 min incubation (SLC22A1 [4]): 9.6 ± 1.4 µM

Reduction in cellular accumulation (of tetraethylammonium) (SLC22A1 [4]): 41.2%
SMILES: Cc1cc(/C=C/C#N)cc(C)c1Nc1ccnc(Nc2ccc(C#N)cc2)n1 [rilpivirine]

SMILES: CC(C)c1nc(CN(C)C(=O)N[C@H](C(=O)N[C@@H](Cc2ccccc2)C[C@H](O)[C@H](Cc2ccccc2)NC(=O)OCc2cncs2)C(C)C)cs1 [ritonavir]
Effect on tetraethylammonium accumulation in SLC22A1-overexpressing Hela cells (SLC22A1 [6]): able to reduce tetraethylammonium accumulation | SLC22A1 inhibition in vitro (SLC22A1 [1]): inhibited

SMILES: CC(C)(C)NC(=O)[C@@H]1C[C@@H]2CCCC[C@@H]2CN1C[C@@H](O)[C@H](Cc1ccccc1)NC(=O)[C@H](CC(N)=O)NC(=O)c1ccc2ccccc2n1 [saquinavir]
Effect on tetraethylammonium accumulation in SLC22A1-overexpressing Hela cells (SLC22A1 [6]): able to reduce tetraethylammonium accumulation

SMILES: CC[N+](CC)(CC)CC [tetraethylammonium]
Tetraethylammonium cellular accumulation in mock transfected control KCL22 cells (SLC22A1 [4]; tetraethylammonium 5.5 μM, 30 min, no inhibitor, mean ± SD, n = 3): 0.3 ± 0.04 µM and 0.3 ± 0.004 µM | Tetraethylammonium cellular accumulation in SLC22A1-overexpressing KCL22 cells (SLC22A1 [4]; tetraethylammonium 5.5 μM, 30 min, no inhibitor, mean ± SD, n = 9): 10.6 ± 0.8 µM | Amount of substrate in SLC22A1-overexpressing cells subjected to prazosin compared to SLC22A1-overexpressing cells (% less) (SLC22A1 [5]; KCL22 cells, 100 μM prazosin, efavirenz 20 μM, darunavir 20 μM, tetraethylammonium 1 μM): 76% | Amount of substrate in mock-transfected cells compared to SLC22A1-overexpressing cells (% less) (SLC22A1 [5]; KCL22 cells, efavirenz 20 μM, darunavir 20 μM, tetraethylammonium 1 μM): 92%

SMILES: Cc1cn([C@H]2C[C@H](N=[N+]=[N-])[C@@H](CO)O2)c(=O)[nH]c1=O [zidovudine]
Tetraethylammonium concentration in cells after 30 min incubation (SLC22A1 [4]): 8.5 ± 3.1 µM
